Earlier results, collected in patent publication US20040028754A1, “Use of phyllanthus component for the treatment or prophylaxis of infections triggered by flaviviridae” (priority 2000, published 2004).

Key:
[1] = test system: Ca^2+- and phospholipid-dependent protein kinase C (PKC) of the rat brain
[2] = molecular target: T1, cAMP-dependent protein kinase of the rat liver (Rattus norvegicus, UniProt P27791)
T1 construct: the cAMP-dependent protein kinase of the rat liver; from tissue; host or cells: rat liver

[3] = test system: Ca^2+-dependent protein kinase of the wheat embryo
Staphylococcus aureus = conditions: 0.1 ml; extract 50 mg/ml, streptomycin 10 mg/ml
Bacillus subtilis = conditions: 0.1 ml; extract 50 mg/ml, streptomycin 10 mg/ml

| Compound | inhibition of protein kinase [1] | inhibition of protein kinase [2] | inhibition of protein kinase [3] | inhibition zone (Staphylococcus aureus) | inhibition zone (Bacillus subtilis) |
| --- | --- | --- | --- | --- | --- |
| O=C1OC2C3OC(=O)C4=CC(=O)C5(O)Oc6c(O)c(O)cc(c6C4C5(O)O)C(=O)OC2C(OC(=O)c2cc(O)c(O)c(O)c2)OC3COC(=O)c2cc(O)c(O)c3c2C2C1=CC(=O)C(O)(O3)C2(O)O (centres unmarked) [amariin] | most effective | most effective | most effective | – | – |
| [H]/N=C(/N)N[C@H]1[C@H](O)[C@@H](O)[C@H](O[C@@H]2O[C@@H](C)[C@](O)(C=O)[C@H]2O[C@@H]2O[C@@H](CO)[C@H](O)[C@@H](O)[C@@H]2NC)[C@@H](N/C(N)=N\[H])[C@@H]1O [streptomycin] | – | – | – | 35 mm | 35 mm |
| geraiin | most effective | most effective | most effective | – | – |
